Reference: patent publication US6294527A, “Cephem compounds” (Zenyaku Kogyo Kabushiki Kaisha, priority 1996, dated 2001)
Values after ≈ are worked out from the molar mass of the structure shown. Counter-ions that a name gives are not always drawn. Like-named read-outs stand apart in the source and are kept apart here.

Legend:
[1] = tested on: vancomycin-resistant enterococci (E. faecalis NCTC-12201); experiment: Agar plate dilution MIC, vancomycin-resistant enterococci E. faecalis NCTC-12201; assay type: cell-based; settings: Enterococcus faecalis
Procedure: (§1) Antibacterial test was performed in substantial accordance with agar plate dilution method based on Standard method of The Japan Society of Chemotherapy to determine minimum inhibitory concentration (MIC) of the respective test compounds against Staphylococcus aureus (S. aureus FDA 209P) and vancomycin-resistant enterococci (E. faecalis NCTC-12201). Also determined was MIC80 on clinically separated strains (27 strains) of MRSA. The inoculated amount was 10^6 CFU/ml and flomoxef (FMOX) and vancomycin (VCM) were used as controls.

[2] = tested on: Staphylococcus aureus (S. aureus FDA 209P); experiment: Agar plate dilution MIC, Staphylococcus aureus FDA 209P; assay type: cell-based; settings: FDA209P, read-out: MIC S. aureus FDA 209P
Procedure: as §1

[3] = NCTC12201, agar plate dilution, inoculum 10^6 CFU/ml, vancomycin-resistant, read-out: MIC E. faecalis NCTC-12201
[4] = agar plate dilution, inoculum 10^6 CFU/ml

| Compound | MIC [1, 3] | MIC [2, 4] | MIC ([1]; NCTC12201, read-out: MIC E. faecalis NCTC-12201) | MIC [2] |
| --- | --- | --- | --- | --- |
| O=C(Cc1cccs1)N[C@@H]1C(=O)N2C(C(=O)O)=C(C=CSc3cc(=O)c4c(C(F)(F)F)cccc4s3)CS[C@H]12 [compound 5, 7-[2-(2-thienyl)acetamide]-3-[2-(4-oxo-5-trifluoromethyl-4H-1-benzothiopyran-2-yl)thiovinyl]-3-cephem-4-carboxylic acid] | 1.56 µg/mL (≈ 2.55 µM) | 0.05 µg/mL (≈ 0.0819 µM) |  |  |
| CO[C@@]1(NC(=O)CSC(F)F)C(=O)N2C(C(=O)O)=C(CSc3nnnn3CCO)CO[C@@H]21 [FMOX, flomoxef, reference compound] | > 100 µg/mL | 0.2 µg/mL (≈ 0.403 µM) |  |  |
| Nc1nc(/C(=N/O)C(=O)N[C@@H]2C(=O)N3C(C(=O)O)=C(C=CSc4cc(=O)c5occc5s4)CS[C@H]23)cs1 [compound 17, 7-[2-hydroxyimino-2-(2-aminothiazol-4-yl)acetamide]-3-[2-(7-oxo-7H-thiopyrano[3,2-b]furan-5-yl)thiovinyl]-3-cephem-4-carboxylic acid] | 6.25 µg/mL (≈ 10.8 µM) | 0.39 µg/mL (≈ 0.675 µM) |  |  |
| O=C(Cc1cccs1)N[C@@H]1C(=O)N2C(C(=O)O)=C(C=CSc3cc(=O)c4ccc(O)cc4s3)CS[C@H]12 [compound 8, 7-[2-(2-thienyl)acetamide]-3-[2-(7-hydroxy-4-oxo-4H-1-benzothiopyran-2-yl)thiovinyl]-3-cephem-4-carboxylic acid] | 12.5 µg/mL (≈ 22.4 µM) | 0.2 µg/mL (≈ 0.358 µM) |  |  |
| O=C(Cc1cccs1)N[C@@H]1C(=O)N2C(C(=O)O)=C(C=CSc3sc4ccsc4c(=O)c3Br)CS[C@H]12 [compound 25, 7-[2-(2-thienyl)acetamide]-3-[2-(6-bromo-7-oxo-7H-thieno[3,2-b]thiopyran-5-yl)thiovinyl]-3-cephem-4-carboxylic acid] | 0.78 µg/mL (≈ 1.24 µM) | 0.013 µg/mL (≈ 0.0207 µM) |  |  |
| COc1ccc2c(=O)cc(SC=CC3=C(C(=O)O)N4C(=O)[C@@H](NC(=O)Cc5cccs5)[C@H]4SC3)sc2c1 [compound 4, 7-[2-(2-thienyl)acetamide]-3-[2-(7-methoxy-4-oxo-4H-1-benzothiopyran-2-yl)thiovinyl]-3-cephem-4-carboxylic acid] | 1.56 µg/mL (≈ 2.72 µM) | 0.1 µg/mL (≈ 0.175 µM) |  |  |
| O=C(Cc1cccs1)N[C@@H]1C(=O)N2C(C(=O)O)=C(C=CSc3cc(=O)c4nccnc4s3)CS[C@H]12 [compound 24, 7-[2-(2-thienyl)acetamide]-3-[2-(8-oxo-8H-thiopyrano[2,3-b]pyrazin-6-yl)thiovinyl]-3-cephem-4-carboxylic acid] | 3.13 µg/mL (≈ 5.75 µM) | ≤ 0.006 µg/mL |  |  |
| O=C(Cc1cccs1)N[C@@H]1C(=O)N2C(C(=O)O)=C(C=CSc3cc(=O)c4cc(F)c(F)c(F)c4s3)CS[C@H]12 [compound 7, 7-[2-(2-thienyl)acetamide]-3-[2-(6,7,8-trifluoro-4-oxo-4H-1-benzothiopyran-2-yl)thiovinyl]-3-cephem-4-carboxylic acid] | 0.78 µg/mL (≈ 1.31 µM) | 0.025 µg/mL (≈ 0.0419 µM) |  |  |
| O=C(Cc1cccs1)N[C@@H]1C(=O)N2C(C(=O)O)=C(C=CSc3cc(=O)c4ccc(F)cc4s3)CS[C@H]12 [compound 2, 7-[2-(2-thienyl)acetamide]-3-[2-(7-fluoro-4-oxo-4H-1-benzothiopyran-2-yl)thiovinyl]-3-cephem-4-carboxylic acid] | 0.78 µg/mL (≈ 1.39 µM) | 0.05 µg/mL (≈ 0.0892 µM) |  |  |
| Nc1nc(/C(=N/O)C(=O)N[C@@H]2C(=O)N3C(C(=O)O)=C(C=CSc4cc(=O)c5ccccc5s4)CS[C@H]23)cs1 [compound 11, sodium 7-[2-hydroxyimino-2-(2-aminothiazol-4-yl)acetamide]-3-[2-(4-oxo-4H-1-benzothiopyran-2-yl)thiovinyl]-3-cephem-4-carbonate] | 1.56 µg/mL | 0.1 µg/mL |  |  |
| Nc1nc(/C(=N/O)C(=O)N[C@@H]2C(=O)N3C(C(=O)O)=C(C=CSc4cc(=O)c5ccc(F)cc5s4)CS[C@H]23)cs1 [compound 18, 7-[2-hydroxyimino-2-(2-aminothiazol-4-yl)acetamide]-3-[2-(7-fluoro-4-oxo-4H-1-benzothiopyran-2-yl)thiovinyl]-3-cephem-4-carboxylic acid] | 6.25 µg/mL (≈ 10.3 µM) | 0.39 µg/mL (≈ 0.644 µM) |  |  |
| O=C(Cc1cccs1)N[C@@H]1C(=O)N2C(C(=O)O)=C(C=CSc3cc(=O)c4sccc4s3)CS[C@H]12 [compound 20, 7-[2-(2-thienyl)acetamide]-3-[2-(7-oxo-7H-thieno[3,2-b]thiopyran-5-yl)thiovinyl]-3-cephem-4-carboxylic acid] | 1.56 µg/mL (≈ 2.84 µM) | 0.025 µg/mL (≈ 0.0456 µM) |  |  |
| O=C(Cc1cccs1)N[C@@H]1C(=O)N2C(C(=O)O)=C(C=CSc3cc(=O)c4occc4s3)CS[C@H]12 [compound 9, 7-[2-(2-thienyl)acetamide]-3-[2-(7-oxo-7H-thiopyrano[3,2-b]furan-5-yl)thiovinyl]-3-cephem-4-carboxylic acid] | 3.13 µg/mL (≈ 5.88 µM) | 0.025 µg/mL (≈ 0.0469 µM) |  |  |
| CN[C@H](CC(C)C)C(=O)N[C@H]1C(=O)N[C@@H](CC(N)=O)C(=O)N[C@H]2C(=O)N[C@H]3C(=O)N[C@H](C(=O)N[C@H](C(=O)O)c4cc(O)cc(O)c4-c4cc3ccc4O)[C@H](O)c3ccc(c(Cl)c3)Oc3cc2cc(c3O[C@@H]2O[C@H](CO)[C@@H](O)[C@H](O)[C@H]2O[C@H]2C[C@](C)(N)[C@H](O)[C@H](C)O2)Oc2ccc(cc2Cl)[C@H]1O [VCM, vancomycin, reference compound] |  |  | > 1000 µg/mL | 0.78 µg/mL (≈ 0.538 µM) |
| N=C(N)SCc1ccc2c(=O)cc(SC=CC3=C(C(=O)O)N4C(=O)[C@@H](NC(=O)Cc5cccs5)[C@H]4SC3)sc2c1 [compound 28, 7-[2-(2-thienyl)acetamide]-3-[2-(7-isothiuroniummethyl-4-oxo-4H-1-benzothiopyran-2-yl)thiovinyl]-3-cephem-4-carboxylic acid.formate] | 6.25 µg/mL | 0.0254 µg/mL |  |  |
| O=C(Cc1ccccc1)N[C@@H]1C(=O)N2C(C(=O)O)=C(C=CSc3cc(=O)c4ccccc4s3)CS[C@H]12 [compound 27, 7-(2-phenylacetamide)-3-[2-(4-oxo-4H-1-benzothiopyran-2-yl)thiovinyl]-3-cephem-4-carboxylic acid] | 3.13 µg/mL (≈ 5.83 µM) | 0.025 µg/mL (≈ 0.0466 µM) |  |  |
| Nc1nc(/C(=N/O)C(=O)N[C@@H]2C(=O)N3C(C(=O)O)=C(C=CSc4cc(=O)c5sccc5s4)CS[C@H]23)cs1 [compound 23, 7-[2-hydroxyimino-2-(2-aminothiazol-4-yl)acetamide]-3-[2-(7-oxo-7H-thieno[3,2-b]thiopyran-5-yl)thiovinyl]-3-cephem-4-carboxylic acid] | 3.13 µg/mL (≈ 5.27 µM) | 0.1 µg/mL (≈ 0.168 µM) |  |  |
| O=C(Cc1cccs1)N[C@@H]1C(=O)N2C(C(=O)O)=C(C=CSc3cc(=O)c4ccc(N5CCNCC5)cc4s3)CS[C@H]12 [compound 22, 7-[2-(2-thienyl)acetamide]-3-[2-(4-oxo-7-(piperazin-1-yl)-4H-1-benzothiopyran-2-yl)thiovinyl]-3-cephem-4-carboxylic acid.hydrochloride] | 6.25 µg/mL | ≤ 0.006 µg/mL |  |  |
| O=C(Cc1cccs1)N[C@@H]1C(=O)N2C(C(=O)O)=C(C=CSc3cc(=O)c4ccc(N5CCCCC5)cc4s3)CS[C@H]12 [compound 19, 7-[2-(2-thienyl)acetamide]-3-[2-(4-oxo-7-piperidino-4H-1-benzothiopyran-2-yl)thiovinyl]-3-cephem-4-carboxylic acid] | 3.13 µg/mL (≈ 5 µM) | 0.1 µg/mL (≈ 0.16 µM) |  |  |
| O=C(Cc1cccs1)N[C@@H]1C(=O)N2C(C(=O)O)=C(C=CSc3cc(=O)c4ccccc4s3)CS[C@H]12 [compound 1, 7-[2-(2-thienyl)acetamide]-3-[2-(4-oxo-4H-1-benzothiopyran-2-yl)thiovinyl]3-cephem-4-carboxylic acid] | 3.13 µg/mL (≈ 5.77 µM) | 0.2 µg/mL (≈ 0.369 µM) |  |  |
| NCc1c(SC=CC2=C(C(=O)O)N3C(=O)[C@@H](NC(=O)Cc4cccs4)[C@H]3SC2)sc2sc(Cl)cc2c1=O [compound 31, 7-[2-(2-thienyl)acetamide]-3-[2-(5-aminomethyl-2-chloro-4-oxo-4H-thieno[2,3-b]thiopyran-6-yl)thiovinyl]-3-cephem-4-carboxylic acid.trifluoroacetate] | 3.13 µg/mL | 0.1 µg/mL |  |  |
| O=C(Cc1cccs1)N[C@@H]1C(=O)N2C(C(=O)O)=C(C=CSc3cc(=O)c4scc([N+](=O)[O-])c4s3)CS[C@H]12 [compound 26, 7-[2-(2-thienyl)acetamide]-3-[2-(3-nitro-7-oxo-7H-thieno[3,2-b]thiopyran-5-yl)thiovinyl]-3-cephem-4-carboxylic acid] | 1.56 µg/mL (≈ 2.63 µM) | 0.025 µg/mL (≈ 0.0421 µM) |  |  |
| O=C(Cc1cccs1)N[C@@H]1C(=O)N2C(C(=O)O)=C(C=CSc3cc(=O)c4cccnc4s3)CS[C@H]12 [compound 30, 7-[2-(2-thienyl)acetamide]-3-[2-(4-oxo-4H-thiopyrano[2,3-b]pyridin-2-yl)thiovinyl]-3-cephem-4-carboxylic acid] | 6.25 µg/mL (≈ 11.5 µM) | ≤ 0.006 µg/mL |  |  |
| O=C(Cc1cccs1)N[C@@H]1C(=O)N2C(C(=O)O)=C(C=CSc3cc(=O)c4cc(Cl)sc4s3)CS[C@H]12 [compound 21, 7-[2-(2-thienyl)acetamide]-3-[2-(2-chloro-4-oxo-4H-thieno[2,3-b]thiopyran-6-yl)thiovinyl]-3-cephem-4-carboxylic acid] | 1.56 µg/mL (≈ 2.68 µM) | 0.025 µg/mL (≈ 0.0429 µM) |  |  |
| O=C(Cc1cccs1)N[C@@H]1C(=O)N2C(C(=O)O)=C(C=CSc3cc(=O)c4ccc(N5CCOCC5)cc4s3)CS[C@H]12 [compound 10, 7-[2-(2-thienyl)acetamide]-3-[2-(7-morpholino-4-oxo-4H-1-benzothiopyran-2-yl)thiovinyl]-3-cephem-4-carboxylic acid] | 6.25 µg/mL (≈ 9.96 µM) | 0.05 µg/mL (≈ 0.0796 µM) |  |  |
